From US7741280B2, “Multimeric molecules, the preparation method thereof and use of same for the preparation of medicaments” (Centre National de la Recherche Scientifique, priority 2002, dated 2010)
Where a SMILES comes first, the peptide text is derived from it. Where no end group is shown, it is not given here. Side-chain parts run from the residue outwards. [ ]: non-standard residue; d: D form. β3hK = NCCCC[C@H](N)CC(=O)O; Ahx = NCCCCCC(=O)O

Columns and labels:
CD40-CD40L interaction [1] = target: T1, CD40-CD40L interaction (Homo sapiens, UniProt P25942); experiment: Expression of CD95 induced by CD40L on BL41 cells cultured with 3T6-CD40L fibroblasts (flow cytometry); assay type: cell-based; conditions: for effect on the expression of CD95 induced by CD40L (in words): BL41 cells in the presence of 3T6-CD40L cells, no concentration stated; for % of inhibition of the expression of CD95 induced by CD40L: BL41 + 3T6-CD40L, 48 hours
T1 construct: they receive a signal via the CD40 molecule, which they express in a constitutive manner; endogenous in cells; host or cells: BL41 Burkitt's lymphoma cells (endogenous CD40), co-cultured with 3T6 fibroblasts transfected with CD40L
T1 sequence (P25942 21-277): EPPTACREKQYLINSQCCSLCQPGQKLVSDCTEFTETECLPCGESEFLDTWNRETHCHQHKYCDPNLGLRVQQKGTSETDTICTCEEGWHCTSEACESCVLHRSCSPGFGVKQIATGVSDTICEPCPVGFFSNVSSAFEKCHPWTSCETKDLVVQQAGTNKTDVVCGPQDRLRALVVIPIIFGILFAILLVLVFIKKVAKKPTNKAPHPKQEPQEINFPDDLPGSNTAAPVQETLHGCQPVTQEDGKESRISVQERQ
Protocol: Then, the affinity of these ligands for the CD40 molecule is evaluated using a biosensor (BIAcore™). The agonist or antagonist effect of the ligands was tested using two simple biological tests. In the first, the expression of the membranous molecule CD95 by transformed B cells (Burkitt's lymphoma) is studied after activation by the CD40-CD40L interaction (Schattner et al., 1996). In such a model, the CD40L partner is expressed on transfected fibroblasts (3T6-CD40L) (Buelens et al., 1997). The BL41 Burkitt's lymphoma cells are incubated with non-transfected 3T6 fibroblasts (FIGS. 3A and 3C) or with 3T6 fibroblasts transfected by CD40L (FIGS. 3B and 3D). After 48 hours, the expression of CD95 is evaluated by flow cytometry. The expression of CD95 is induced in the presence of CD40L (FIG. 3B). A commercial anti-CD40L antibody inhibits the consequences of the CD40-CD40L interaction (FIG. 3D).
The antagonist effect is evaluated by measurement of the decrease in the expression of CD95 induced by the CD40L in the presence of the different chemical ligands (see Table I). With the help of these tests, the most interesting ligands are chosen to evaluate their activity in vivo and in vitro in more complex models.
The lymphoma B cells express the CD95 molecule when they receive a signal via the CD40 molecule, which they express in a constitutive manner. This signal is generally conveyed by the CD40L (CD154) molecule expressed by another cell. The antagonist ligands inhibit the binding of CD40 on CD40L and thus […] the expression of CD95. The agonist ligands copy the CD40L molecule and induce the expression of CD95 even in the absence of the cell expressing CD40L.
The BL41 Burkitt's lymphoma cells (5.10^5/ml) are cultured in the presence of 3T6 fibroblasts (10^5/ml) transfected (3T6-CD40L) or not transfected with CD40L (3T6), and treated with mitomycin to stop their proliferation. The ligands are added at the start of the culture at the chosen concentration. After culture for 48 hours, expression of the CD95 molecule is measured by flow cytometry. The BL41 cells are distinguished from the fibroblasts using an anti-CD19 antibody (specific marker of the B cells).

[2] = system: BL41 Burkitt's lymphoma cells; experiment: Inhibition of proliferation of BL41 cells (incorporation of tritiated thymidine); assay type: cell-based; conditions: 24 hours culture, FIG. 4A, 50 μM to 50 nM
Protocol: Tritiated thymidine was added at a concentration of 1 μci/well (0.8.10^5 cells/well) for the last 8 hours of culture and the incorporation of tritiated thymidine measured using a gaseous scintillation β counter.
(§1) The second test is based on the property of certain B lymphomas to cease proliferation and enter apoptosis during the bridging of their membranous CD40 molecule (Tong et al., 1999). In this test, the BL41 cells are incubated with ligands CD40 and after 24 hours either the inhibition of proliferation of these cells is measured, by studying the incorporation of tritiated thymidine, or the percentage of apoptotic cells is measured with a flow cytometry study (FIGS. 4A and 4B).
(§2) Certain B lymphomas enter apoptosis when their CD40 molecule is bridged by an anti-CD40 antibody or by CD40L which is soluble independently from the CD95 molecule. This induction of apoptosis is expressed as a decrease in proliferation measured by the incorporation of tritiated thymidine. The agonist ligands of CD40 will induce an increase in apoptosis and as a result a decrease in the incorporation of tritiated thymidine.
The BL41 Burkitt's lymphoma cells (4.10^5/mL) are cultured in the presence of the different ligands at the chosen concentration. After 24 hours, the cells are either incubated for 8 hours with tritiated thymidine (1 μci/well) to measure the proliferation or are labelled with Annexin V-FITC and propidium iodide to evaluate the percentage of apoptotic cells with flow cytometry.

[3] = target: T2, human CD40 muIg fusion protein (UniProt P01863+P25942); experiment: Biacore3000 surface plasmon resonance study of the CD40/CD40L interaction and the ligands; assay type: binding; conditions: in the presence of 100 nM of CD40L
T2 construct: purchased ANCELL Corporation, Bayport, Minn
T2 sequence (P25942+P01863 fused): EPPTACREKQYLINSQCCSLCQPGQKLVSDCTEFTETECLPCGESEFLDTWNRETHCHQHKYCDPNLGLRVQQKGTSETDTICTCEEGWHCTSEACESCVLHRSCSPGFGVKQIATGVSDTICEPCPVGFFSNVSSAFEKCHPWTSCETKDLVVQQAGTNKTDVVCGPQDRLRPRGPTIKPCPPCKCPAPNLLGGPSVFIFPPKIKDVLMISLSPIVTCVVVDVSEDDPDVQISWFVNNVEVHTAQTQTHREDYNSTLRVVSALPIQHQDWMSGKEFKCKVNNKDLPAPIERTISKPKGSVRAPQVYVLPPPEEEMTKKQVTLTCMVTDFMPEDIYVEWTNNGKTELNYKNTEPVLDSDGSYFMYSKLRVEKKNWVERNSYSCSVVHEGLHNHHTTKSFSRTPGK
From the text: The Biacore3000 is a device which allows the interactions between two molecules to be studied, based on the surface plasmon resonance. It allows measurement in real time, and therefore allows the kinetics of interaction (association and disassociation) of an analyte (which is in an injected solution) and of a ligand (immobilised on a microchip supporting the measurement) to be monitored. The kinetic measurements at different concentrations of analyte allow calculation of the affinity constants of the interaction between the ligand and the analytes. The microchip contains four cells for different measurements, which allows direct comparison of a reference cell on which a protein which is not pertinent (protein which has no affinity with the ligand studied), but close to the ligand is immobilised with the cell on which the ligand is immobilised.
(§3) Rabbit antibodies directed against the constant region of mouse immunoglobulins were immobilized on a microchip. In the reference cell a monoclonal mouse antibody of isotype IgG2a (LG112) at 40 nM is immobilized with a flow of 5 μL/min for 2 minutes; in the cell of the ligand the recombinant CD40 associated with the constant region of the mouse IgG2a heavy chain (human CD40 muIg fusion protein, ANCELL Corporation, Bayport, Minn.) is immobilized under the same conditions.
On the two cells (reference and ligand), the CD40L (human CD154 muCD8 fusion protein, ANCELL Corporation) at different concentrations or the CD40L at a concentration of 1 μM or of 125 nM, are injected, as analyte, in the presence of different concentrations of ligands. The flow in the presence of the analytes is 10 μL/min for 5 minutes to study the association and, in the absence of analytes, the conditions are the same to study the dissociation.
In order to regenerate the cells (i.e. remove all the proteins adsorbed in a non-covalent manner), a solution of 10 mM of HCl is injected at 5 μL/min for 1 minute. The cells are then ready for another analysis.

CD40-CD40L interaction [4] = target: T1, CD40-CD40L interaction; experiment: Expression of CD95 induced by CD40L on BL41 cells cultured with 3T6-CD40L fibroblasts (flow cytometry); assay type: cell-based; conditions: concentration of 50 μM
[5] = system: BL41 Burkitt's lymphoma cells; experiment: Apoptosis of BL41 cells (Annexin V-FITC / propidium iodide flow cytometry); assay type: cell-based; conditions: 24 hours culture, FIG. 4B, 50 to 6 μM
Protocol: Apoptosis is measured by flow cytometry after labelling with annexin V FITC and propidium iodide. Cells labelled with annexin V alone or with annexin V and propidium iodide are considered apoptotic. The percentage of specific apoptosis is calculated by the following formula: [(% apoptosis with ligand−% apoptosis without ligand)/(100−% apoptosis without ligand)]×100
as §1, §2
The BL41 Burkitt's lymphoma cells (4.10^5/mL) are cultured in the presence of the different ligands at the chosen concentration. […]

[6] = target: T3, human CD40 muIg fusion protein (recombinant CD40 associated with the constant region of the mouse IgG2a heavy … (human; mouse, UniProt P25942 21-193, limits assumed); experiment: SPR (Biacore 3000), inhibition of the binding of 100 nM CD40L to captured CD40 muIg
T3 construct: Bought reagent; Captured on the Biacore chip through rabbit anti-mouse immunoglobulin antibodies; not shown: constant region of the mouse IgG2a heavy chain
T3 sequence (P25942 21-193 limits assumed): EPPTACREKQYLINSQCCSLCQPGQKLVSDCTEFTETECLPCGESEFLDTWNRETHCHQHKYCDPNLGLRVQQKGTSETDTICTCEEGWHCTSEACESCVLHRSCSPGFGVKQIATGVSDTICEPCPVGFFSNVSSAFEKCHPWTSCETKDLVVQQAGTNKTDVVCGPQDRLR
Protocol: as §3, with “µL/min” for “μL/min”
(§4) The flow in the presence of the analytes is 10 µL/min for 5 minutes to study the association and, in the absence of analytes, the conditions are the same to study the dissociation.
(§5) The association of L4, L7 (and of its derivatives), L8, L9 L11 and L12 was studied in the presence of 100 nM of CD40L. Only the L4 and L9 molecules bind to CD40 and displace CD40L. The kinetic analysis in the presence of 40 and 80 nM of L4 produced an equilibrium constant for L4 of 180 nM.

[7] = target: T3, human CD40 muIg fusion protein …; experiment: SPR (Biacore 3000), kinetic analysis with 2.5 µM L3 in the presence of 125 nM CD40L over captured CD40 muIg
Protocol: as §3, with “µL/min” for “μL/min”
as §4

[8] = target: T3, human CD40 muIg fusion protein …; experiment: SPR (Biacore 3000), kinetic analysis with 40 and 80 nM L4 in the presence of 100 nM CD40L over captured CD40 muIg
Protocol: as §3, with “µL/min” for “μL/min”
as §4, §5

NCCCC[C@H](N)C(=O)NCC(=O)N[C@@H](Cc1ccc(O)cc1)C(=O)N[C@@H](Cc1ccc(O)cc1)C(=O)NCCCCCC(=O)NCCCOCC(COCCCNC(=O)CCCCCNC(=O)[C@H](Cc1ccc(O)cc1)NC(=O)[C@H](Cc1ccc(O)cc1)NC(=O)CNC(=O)[C@@H](N)CCCCN)(COCCCNC(=O)CCCCCNC(=O)[C@H](Cc1ccc(O)cc1)NC(=O)[C@H](Cc1ccc(O)cc1)NC(=O)CNC(=O)[C@@H](N)CCCCN)NC(=O)CCC(N)=O [L7]
effect on the expression of CD95 induced by CD40L (in words) (CD40-CD40L interaction [1]): no effect
% of inhibition of the expression of CD95 induced by CD40L (CD40-CD40L interaction [1]; ligand 0.5 μM): 0%
% of inhibition of the expression of CD95 induced by CD40L (CD40-CD40L interaction [1]; ligand 5 μM): 0%
% of inhibition of the expression of CD95 induced by CD40L (CD40-CD40L interaction [1]; ligand 50 μM): 0%
inhibition of the proliferation of BL41 cells (in words) [2]: only have a small or no effect
binding to CD40 and displacement of CD40L (in words) [3]: Only the L4 and L9 molecules bind to CD40

C[C@H]1NC(=O)[C@H](CCCCNC(=O)CCCCCNC(=O)[C@H](Cc2ccc(O)cc2)NC(=O)[C@H](Cc2ccc(O)cc2)NC(=O)CNC(=O)[C@@H](N)CCCCN)NC(=O)[C@@H](C)NC(=O)[C@H](CCCCNC(=O)CCCCCNC(=O)[C@H](Cc2ccc(O)cc2)NC(=O)[C@H](Cc2ccc(O)cc2)NC(=O)CNC(=O)[C@@H](N)CCCCN)NC(=O)[C@@H](C)NC(=O)[C@H](CCCCNC(=O)CCCCCNC(=O)[C@H](Cc2ccc(O)cc2)NC(=O)[C@H](Cc2ccc(O)cc2)NC(=O)CNC(=O)[C@@H](N)CCCCN)NC1=O [L4] (cyclo(K([Ahx-Tyr-Tyr-Gly-Lys])[dA]K([Ahx-Tyr-Tyr-Gly-Lys])[dA]K([Ahx-Tyr-Tyr-Gly-Lys])[dA]))
% of inhibition of the expression of CD95 induced by CD40L (CD40-CD40L interaction [1]; ligand 0.5 μM): 19%
% of inhibition of the expression of CD95 induced by CD40L (CD40-CD40L interaction [1]; ligand 5 μM): 36%
% of inhibition of the expression of CD95 induced by CD40L (CD40-CD40L interaction [1]; ligand 10 μM): 40%
% of inhibition of the expression of CD95 induced by CD40L (CD40-CD40L interaction [1]; ligand 50 μM): 22%
cell mortality (CD40-CD40L interaction [4]): substantial cell mortality

L11: constituted by the single peptide sequence (KGYY-{Ahx-OH})
apoptosis of BL41 cells (in words) [5]: no effect
binding to CD40 and displacement of CD40L (in words) [3]: Only the L4 and L9 molecules bind to CD40

L4a: same core molecule as L4 but only 2 examples of the peptide sequence (chain [dA]K[dA]K[dA]K; peptide H-KGYY[Ahx]; also: two copies of chain 2 linked via Ahx to two Lys ε-amines of chain 1, which Lys not given here, head-to-tail to a chain's N/C-terminus)
effect on the expression of CD95 induced by CD40L (in words) (CD40-CD40L interaction [1]): only very weakly inhibits
% of inhibition of the expression of CD95 induced by CD40L (CD40-CD40L interaction [1]; ligand 0.5 μM): 0%
% of inhibition of the expression of CD95 induced by CD40L (CD40-CD40L interaction [1]; ligand 5 μM): 8%
% of inhibition of the expression of CD95 induced by CD40L (CD40-CD40L interaction [1]; ligand 50 μM): 13%
apoptosis of BL41 cells (in words) [5]: very weak apoptosis

B1: Compound L9 (ligand L9): cyclic core structure different from that of L4 with 3 examples of the same peptide sequence (peptide)
chain: [β3hK]-[β3hK]-[β3hK]
peptide: H-KGYY[Ahx]
modifications: also: three H-KGYY-Ahx- arms, one on each side-chain amine of the core, head-to-tail to a chain's N/C-terminus
IC50 [6]: < 50 nM

B2: Compound L3 (ligand L3) (peptide)
chain: KKKKA
peptide: KGYY
modifications: also: core Lys joined through epsilon-amines (isopeptide bonds), KGYY arms on free amines of core Lys, Tyr C-terminus amide-linked directly to core amine, no spacer
notes: also called linear ligand
Kd [7]: 10000 nM

B3: soluble CD40L: soluble CD40L molecule used as positive control on BL41 cells (protein)
chain: MQKGDQNPQIAAHVISEASSKTTSVLQWAEKGYYTMSNNLVTLENGKQLTVKRQGLYYIYAQVTFCSNREASSQAPFIASLCLKSPGRFERILLRAANTHSSAKPCGQQSIHLGGVFELQPGASVFVNVTDPSQVSHGTGFTSFGLLKL
inhibition of the proliferation of BL41 cells (in words) [2]: greatly inhibits

B4: Compound L4 (ligand L4): cyclic core structure with 3 examples of the peptide sequence mimicking the CD40-CD40L interface (peptide)
chain: [dA]K[dA]K[dA]K
peptide: H-KGYY[Ahx]
modifications: also: three H-KGYY-Ahx- arms, one on the epsilon-amine of each core Lys, head-to-tail to a chain's N/C-terminus
IC50 [6]: 80 nM
Kd [8]: 180 nM
